# Assay results: US9045472B2, “Imidazoquinoline compounds” (ASTRAZENECA AB, priority 2010, dated 2015)
# How the values were obtained:
# [1] = Cynomolgous monkey plasma stability; type: in vitro ADME; details: 37° C., 1 μM final incubation concentration, parent compound by LC-MS-MS
# Method: Cynomolgous Monkey Plasma Stability
# (§1) To determine the half life of the test compound in cynomolgous monkey plasma, incubations were performed at 37° C. in a shaking water bath. The test compound (5 μL of a 100 μM stock in MeCN) was spiked into 0.495 mL plasma to give a final incubation concentration of 1 μM. Aliquots (50 μL) were withdrawn at various time points (typically 0, 20 and 40 sec, 1, 2, 3, 5 and 10 mins) and quenched into MeCN (300 μL) followed by analysis for parent compound by LC-MS-MS (MRM mode). The half life was calculated from the decline of test compound peak area over time
# [2] = Human plasma stability; type: in vitro ADME; details: 37° C., 1 μM final incubation concentration, parent compound by LC-MS-MS
# Method: as §1, with “in human” for “in cynomolgous monkey”, “bath. Compound” for “bath. The test compound”, “over time.” for “over time”
# [3] = target: T1, human TLR7 (Homo sapiens, UniProt Q9NYK1); assay: Human TLR7 assay (SEAP reporter in HEK293 cells); type: cell-based; details: HEK293 cell line expressing recombinant human TLR7 and pNiFty2-SEAP reporter; overnight incubation at 37° C., 0.1% DMSO; read-out: mean pEC50 (concentration producing half of the maximal level of SEAP induction) (converted)
# T1 construct: expressed in transfected cells; host or cells: HEK293 cell line stably expressing the pNiFty2-SEAP reporter plasmid; TLR7 in pUNO vector, blasticidin selection
# T1 sequence (Q9NYK1 27-1049): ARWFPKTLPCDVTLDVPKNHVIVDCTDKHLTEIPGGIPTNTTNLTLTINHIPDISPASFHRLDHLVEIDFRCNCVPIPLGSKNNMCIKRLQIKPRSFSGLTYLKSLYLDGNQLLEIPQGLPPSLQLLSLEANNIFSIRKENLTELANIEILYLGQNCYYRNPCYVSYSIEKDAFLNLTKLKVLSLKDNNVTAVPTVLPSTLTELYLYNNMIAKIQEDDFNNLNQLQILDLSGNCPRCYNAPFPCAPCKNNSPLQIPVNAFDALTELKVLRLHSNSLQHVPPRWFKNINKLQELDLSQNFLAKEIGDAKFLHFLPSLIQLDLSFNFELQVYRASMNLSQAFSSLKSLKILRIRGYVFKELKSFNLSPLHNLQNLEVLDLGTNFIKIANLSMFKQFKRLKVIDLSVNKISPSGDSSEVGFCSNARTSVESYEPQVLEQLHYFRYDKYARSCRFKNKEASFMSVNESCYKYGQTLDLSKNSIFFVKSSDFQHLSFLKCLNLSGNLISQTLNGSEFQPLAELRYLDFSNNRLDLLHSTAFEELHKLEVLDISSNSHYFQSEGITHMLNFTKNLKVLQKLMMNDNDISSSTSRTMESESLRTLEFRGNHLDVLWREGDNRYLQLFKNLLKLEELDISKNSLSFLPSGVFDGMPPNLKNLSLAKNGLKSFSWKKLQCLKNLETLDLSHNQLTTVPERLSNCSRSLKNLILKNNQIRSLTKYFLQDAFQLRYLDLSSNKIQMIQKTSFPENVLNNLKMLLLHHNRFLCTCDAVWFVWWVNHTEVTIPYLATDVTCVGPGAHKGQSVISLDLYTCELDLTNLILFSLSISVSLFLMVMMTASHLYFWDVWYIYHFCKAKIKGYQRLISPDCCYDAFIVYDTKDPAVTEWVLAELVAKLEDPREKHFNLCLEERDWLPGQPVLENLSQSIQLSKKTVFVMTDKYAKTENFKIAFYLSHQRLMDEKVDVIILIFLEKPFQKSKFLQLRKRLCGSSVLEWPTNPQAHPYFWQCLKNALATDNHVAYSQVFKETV
# Excerpt: Recombinant human TLR7 was stably expressed in a HEK293 cell line already stably expressing the pNiFty2-SEAP reporter plasmid; integration of the reporter gene was maintained by selection with the antibiotic zeocin. The most common variant sequence of human TLR7 (represented by the EMBL sequence AF240467) was cloned into the mammalian cell expression vector pUNO and transfected into this reporter cell-line. Transfectants with stable expression were selected using the antibiotic blasticidin. In this reporter cell-line, expression of secreted alkaline phosphatase (SEAP) was controlled by an NFkB/ELAM-1 composite promoter comprising five NFkB sites combined with the proximal ELAM-1 promoter. TLR signaling leads to the translocation of NFkB and activation of the promoter results in expression of the SEAP gene. TLR7-specific activation was assessed by determining the level of SEAP produced following overnight incubation of the cells at 37° C. with the test compound prepared above in the presence of 0.1% (v/v) dimethylsulfoxide (DMSO). Concentration dependent induction of SEAP production by compounds was expressed as the concentration of compound which produced half of the maximal level of SEAP induction for that compound (pEC50).
# [4] = Gravimetric Vapour Sorption (GVS); type: physicochemical
# Method: Gravimetric Vapour Sorption (GVS) profiles were measured using a TA Instruments Q5000SA instrument. Approximately 1 mg to 5 mg of the solid sample was placed into a metal vessel, and the weight of the sample was recorded during a dual cycle step method (40 to 90 to 0 to 90 to 0% relative humidity (RH), in steps of 10% RH).
SMILES,half-life at 1 μM [1] [s],half-life at 1 μM [2] [s],EC50 [3] [nM],"mass increase at 80% relative humidity, cycle 1 ([4]; cycle 1) [%]","mass increase at 80% relative humidity, cycle 2 ([4]; cycle 2) [%]"
"CCOCc1nc2c(N)nc3ccccc3c2n1CCCN(Cc1cccc(CC(=O)OC)c1)C(=O)CN(C)C [Comparative Example 1, Methyl 2-(3-((N-(3-(4-amino-2-(ethoxymethyl)-1H-imidazo[4,5-c]quinolin-yl)propyl)-2-(dimethylamino)acetamido)methyl)phenyl)acetate, reference compound]",660,42,–,–,–
"CCOCc1nc2c(N)nc3ccccc3c2n1CCCCN(Cc1cccc(CC(=O)OC)c1)C(=O)CN(CC)CC [Compound (I), Methyl (3-{[{4-[4-amino-2-(ethoxymethyl)-1H-imidazo[4,5-c]quinolin-1-yl]butyl}(N,N-diethylglycyl)amino]methyl}phenyl)acetate]",72,18,39.8,0.5,0.64
